Measured values taken from ChEMBL document CHEMBL1201862, “PubChem BioAssay data set” (2004).
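Assay format: 96-well plates, 48-hour exposure. Here, GI50 denotes the concentration required for 50% inhibition of growth.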 Active and inactive are the calls of the source. No stated cut-off is given here; in the data, active = GI50 up to about 1.1 µM and inactive = higher.

Legend:
Test in all cases: inhibition of tumour cell growth, NCI panel, 48 h
COLO 205 = tested on: COLO 205
EKVX = tested on: EKVX
HCC 2998 = tested on: HCC 2998
HCT-116 = tested on: HCT-116
HCT-15 = tested on: HCT-15
HOP-62 = tested on: HOP-62
K562 = tested on: K562
LOX IMVI = tested on: LOX IMVI
MDA-MB-231 = tested on: MDA-MB-231
MDA-N = tested on: MDA-N
MOLT-4 = tested on: MOLT-4
Malme-3M = tested on: Malme-3M
NCI-H460 = tested on: NCI-H460
OVCAR-3 = tested on: OVCAR-3
OVCAR-5 = tested on: OVCAR-5
PC-3 = tested on: PC-3
SF-295 = tested on: SF-295
SK-MEL-5 = tested on: SK-MEL-5
SN12C = tested on: SN12C
SW-620 = tested on: SW-620

SMILES	GI50 (COLO 205)	GI50 (EKVX)	GI50 (HCC 2998)	GI50 (HCT-116)	GI50 (HCT-15)	GI50 (HOP-62)	GI50 (K562)	GI50 (LOX IMVI)	GI50 (MDA-MB-231)	GI50 (MDA-N)	GI50 (MOLT-4)	GI50 (Malme-3M)	GI50 (NCI-H460)	GI50 (OVCAR-3)	GI50 (OVCAR-5)	GI50 (PC-3)	GI50 (SF-295)	GI50 (SK-MEL-5)	GI50 (SN12C)	GI50 (SW-620)
CC1(F)C=CC(=O)C=C1	> 100 µM (inactive)	> 100 µM (inactive)	> 100 µM (inactive)	38.4 µM (inactive)	20 µM	> 100 µM (inactive)	44 µM (inactive)	16.3 µM (inactive)	40.1 µM (inactive)	33.2 µM (inactive)	26.4 µM (inactive)	18.4 µM (inactive)	> 100 µM (inactive)	> 100 µM (inactive)	58.7 µM (inactive)	69.7 µM (inactive)	> 100 µM (inactive)	> 100 µM (inactive)	> 100 µM (inactive)	22.2 µM (inactive)
CNC1=Nc2ccccc2C(=O)N2CSCC12 (stereo not drawn)	> 100 µM (inactive)	> 100 µM (inactive)	> 100 µM (inactive)	> 100 µM (inactive)	> 100 µM	> 100 µM (inactive)	> 100 µM (inactive)	> 100 µM (inactive)	> 100 µM (inactive)	> 100 µM (inactive)	> 100 µM (inactive)	> 100 µM (inactive)	> 100 µM (inactive)	> 100 µM (inactive)	> 100 µM (inactive)	> 100 µM (inactive)	> 100 µM (inactive)	> 100 µM (inactive)	> 100 µM (inactive)	> 100 µM (inactive)
Cc1cccc(/C=N/NC(=S)NCc2ccccn2)n1	36.1 µM (inactive)	37.2 µM (inactive)	41.7 µM (inactive)	29.4 µM (inactive)	23.7 µM	22.2 µM (inactive)	36.1 µM (inactive)	14.7 µM (inactive)	33.5 µM (inactive)	47.2 µM (inactive)	16.5 µM (inactive)	22.1 µM (inactive)	15.9 µM (inactive)	74.5 µM (inactive)	> 77.1 µM (inactive)	18.5 µM (inactive)	27.5 µM (inactive)	17.7 µM (inactive)	30.6 µM (inactive)	22.1 µM (inactive)
O=C1C(N2CCN(CCOCCO)CC2)=C(Cl)C(=O)c2ncccc21	8.28 µM (inactive)	19.6 µM (inactive)	> 10 µM (inactive)	5.71 µM (inactive)	18.1 µM	> 10 µM (inactive)	3.2 µM (inactive)	12.7 µM (inactive)	19.2 µM (inactive)	1.97 µM (inactive)	2.37 µM (inactive)	8.77 µM (inactive)	75.2 µM (inactive)	18.5 µM (inactive)	24.5 µM (inactive)	20.7 µM (inactive)	> 10 µM (inactive)	16.6 µM (inactive)	19.5 µM (inactive)	23 µM (inactive)
C/C=C/C(O)P(=O)(OC)OC (stereo not drawn)	0.184 µM (active)	0.308 µM (active)	0.27 µM (active)	0.254 µM (active)	0.309 µM	0.628 µM (active)	0.318 µM (active)	0.187 µM (active)	0.428 µM (active)	0.217 µM (active)	0.3 µM (active)	0.296 µM (active)	0.272 µM (active)	0.255 µM (active)	0.284 µM (active)	0.407 µM (active)	0.366 µM (active)	0.196 µM (active)	0.4 µM (active)	0.277 µM (active)
COc1ccc(C[C@@H]2NC[C@@H](O)[C@@H]2OC(C)=O)cc1	0.0102 µM (active)	0.0475 µM (active)	0.0208 µM (active)	0.0103 µM (active)	0.0171 µM	0.0214 µM (active)	0.0104 µM (active)	0.00403 µM (active)	0.0196 µM (active)	0.0212 µM (active)	0.0105 µM (active)	0.0385 µM (active)	0.0142 µM (active)	0.0256 µM (active)	0.0198 µM (active)	0.0196 µM (active)	0.0253 µM (active)	0.0104 µM (active)	0.0229 µM (active)	0.0166 µM (active)
OC1c2[nH]c3ccccc3c2CCN2CCCCC12 (stereo not drawn)	> 100 µM (inactive)	> 100 µM (inactive)	75.3 µM (inactive)	> 100 µM (inactive)	> 100 µM	> 100 µM (inactive)	> 100 µM (inactive)	> 100 µM (inactive)	> 100 µM (inactive)	> 100 µM (inactive)	> 100 µM (inactive)	> 100 µM (inactive)	> 100 µM (inactive)	> 100 µM (inactive)	> 100 µM (inactive)	> 100 µM (inactive)	> 100 µM (inactive)	–	> 100 µM (inactive)	> 100 µM (inactive)
COC(=O)C(Cc1ccccc1)NC(=O)CSc1nnc(COc2ccc(Cl)cc2)n1-c1ccccc1 (stereo not drawn)	20.4 µM (inactive)	–	5.61 µM (inactive)	23.1 µM (inactive)	35.2 µM	15 µM (inactive)	27.4 µM (inactive)	14.6 µM (inactive)	18.6 µM (inactive)	20.5 µM (inactive)	34 µM (inactive)	19.7 µM (inactive)	16.5 µM (inactive)	–	24.8 µM (inactive)	22.8 µM (inactive)	–	17.1 µM (inactive)	21.2 µM (inactive)	35.9 µM (inactive)
O=c1cc(N2CCNCC2)nc2ccccn12	> 100 µM (inactive)	> 100 µM (inactive)	> 100 µM (inactive)	> 100 µM (inactive)	> 100 µM	> 100 µM (inactive)	> 100 µM (inactive)	> 100 µM (inactive)	> 100 µM (inactive)	> 100 µM (inactive)	> 100 µM (inactive)	> 100 µM (inactive)	–	> 100 µM (inactive)	> 100 µM (inactive)	> 100 µM (inactive)	> 100 µM (inactive)	> 100 µM (inactive)	> 100 µM (inactive)	> 100 µM (inactive)
C1COCCN1.CN(C)c1ccc(-c2c(C#N)c(N)nc(S)c2C#N)cc1	> 100 µM (inactive)	> 100 µM (inactive)	56.1 µM (inactive)	> 100 µM (inactive)	> 100 µM	87.3 µM (inactive)	> 100 µM (inactive)	80.2 µM (inactive)	34.4 µM (inactive)	54.1 µM (inactive)	–	> 100 µM (inactive)	40.2 µM (inactive)	> 100 µM (inactive)	> 100 µM (inactive)	30.5 µM (inactive)	61 µM (inactive)	44.7 µM (inactive)	66.2 µM (inactive)	63 µM (inactive)
C=C(C)C(O)CCC1(C)C=Cc2c(c(C)cc3c2[nH]c2ccccc23)O1 (stereo not drawn)	4.65 µM (inactive)	–	5.65 µM (inactive)	13.2 µM (inactive)	4.26 µM	4.75 µM (inactive)	6.25 µM (inactive)	4.12 µM (inactive)	3.49 µM (inactive)	3.58 µM (inactive)	5.75 µM (inactive)	11.3 µM (inactive)	5.42 µM (inactive)	7.52 µM (inactive)	4.2 µM (inactive)	6.55 µM (inactive)	4.34 µM (inactive)	7.62 µM (inactive)	12.8 µM (inactive)	4.48 µM (inactive)
c1c[nH]c(-c2cccc3nsnc23)c1	13.5 µM (inactive)	33 µM (inactive)	> 100 µM (inactive)	59.7 µM (inactive)	15.7 µM	30.7 µM (inactive)	> 100 µM (inactive)	63.1 µM (inactive)	99.3 µM (inactive)	> 100 µM (inactive)	40.7 µM (inactive)	> 100 µM (inactive)	65.2 µM (inactive)	–	31.8 µM (inactive)	95.9 µM (inactive)	> 100 µM (inactive)	> 100 µM (inactive)	94.2 µM (inactive)	> 100 µM (inactive)
O=C(O)/C=C/c1ccc2c(c1)CC1(Cc3ccccc3C1)C2	27.8 µM (inactive)	> 100 µM (inactive)	93.8 µM (inactive)	23 µM (inactive)	40.3 µM	49.5 µM (inactive)	47.2 µM (inactive)	38.1 µM (inactive)	> 100 µM (inactive)	> 100 µM (inactive)	29.5 µM (inactive)	78.2 µM (inactive)	–	27.7 µM (inactive)	> 100 µM (inactive)	53.6 µM (inactive)	36.1 µM (inactive)	43.5 µM (inactive)	44.5 µM (inactive)	–
O=C(CCc1cccc(O)c1)NCCc1cccc(O)c1	> 100 µM (inactive)	> 100 µM (inactive)	> 100 µM (inactive)	> 100 µM (inactive)	> 100 µM	> 100 µM (inactive)	> 100 µM (inactive)	> 100 µM (inactive)	> 100 µM (inactive)	> 100 µM (inactive)	> 100 µM (inactive)	> 100 µM (inactive)	> 100 µM (inactive)	> 100 µM (inactive)	> 100 µM (inactive)	> 100 µM (inactive)	> 100 µM (inactive)	> 100 µM (inactive)	> 100 µM (inactive)	–
Cc1cc(C)nc(NS(=O)(=O)c2ccc(Nc3c4ccccc4nc4c(C(=O)NNCCO)cccc34)cc2)n1	> 100 µM (inactive)	> 100 µM (inactive)	> 100 µM (inactive)	–	> 100 µM	> 100 µM (inactive)	31 µM (inactive)	34.6 µM (inactive)	> 100 µM (inactive)	> 100 µM (inactive)	30.9 µM (inactive)	> 100 µM (inactive)	15.7 µM (inactive)	86.9 µM (inactive)	> 100 µM (inactive)	> 100 µM (inactive)	> 100 µM (inactive)	> 100 µM (inactive)	> 100 µM (inactive)	> 100 µM (inactive)
